“And” between values parts separate entries of the source, which are not always exact repeats. Equal entries are not always repeated. “Also recorded” adds a separate entry of the source. Blank lines part the entries; values can stand above or below the molecule they belong to.
What was measured:
[1] = Glucose tolerance test (i.p. glucose 2 g/kg) in high fat diet fed mice; format: in vivo, C57BL/6J mice; details: for blood glucose level after 90 min of glucose load: 90 min after 2 g/kg i.p. glucose, high fat control 363, normal diet 190
Method: Glucose Tolerance Test (GTT). The glucose tolerance test was performed on five animals from each group (n=5) after 6 weeks of supplementation. The blood glucose level was measured at time 0 (min) with a Free Style Flash (TheraSense, Inc., CA) handheld glucometer using the test strips (Free Style, TheraSense, Inc., CA). For GTT, a sterile solution containing 2 g of glucose per kg body weight was injected intraperitoneally (i.p.). The tail vein blood was collected and glucose levels measured at 5, 10, 15, 30, 60, and 90 min, respectively. The blood glucose levels were plotted against the time (FIG. 3).

[2] = Total plasma cholesterol at end of feeding study; format: in vivo, C57BL/6J mice; details: high fat control 156.4, normal diet 120.5
Method: Collection of serum, liver and adipose tissue. The feeding was terminated after 12 weeks.
Determination of Plasma Cholesterol: The total plasma cholesterol was analyzed by Clinical Pathology Laboratory at the Diagnostic Center for Population and Animal Health, College of Veterinary Medicine, Michigan State University according to the established standard analytical protocol for total cholesterol.

[3] = Body weight of C57BL/6J mice on high fat diet, 12-week feeding study; format: in vivo; details: for weight gain during the treatment period: 8 weeks of treatment in high fat diet, high fat control 9.76 g; for overall weight gain during the experimental period: 12 weeks, high fat control 18.98 g; for weight loss: compared to the high fat diet controls; for body weight: high fat diet with compound, high fat control 36.91 g, normal diet 31.5 g
Method: Animals and Diet: Male C57BL/6J mice, 4 weeks old, were purchased from Jackson Laboratories (Bar Harbor, Me., USA). The mice were individually housed under controlled temperature (70° F.) and 12 h light-dark cycles. The mice (n=40) had free access to water and laboratory non-purified diet for 5 days. After acclimatization, the mice were randomly divided into groups 1-5 (n=8) for the study. The experiments were carried out according to the ethical guidelines of University Laboratory Animal Resources (ULAR) at Michigan State University, East Lansing, Mich. The diets, 10% K. Cal. (normal) and 60% K. Cal. (high fat), were purchased from Research Diets (New Brunswick, N.J.). The controls were groups 1 and 2 and received normal (10% K. Cal.) and high fat (60% K. Cal.) diets, respectively, throughout the study. The food was prepared for each treatment separately by mixing 1 g of pure anthocyanin mixture, 500 mg each of betulinic and ursolic acids per kilogram high fat diet. The treatment groups, 3-5, were fed initially for 4 weeks with the high fat diet and then switched to the diet containing anthocyanins, betulinic acid or ursolic acids. Food was changed at intervals of three days to avoid oxidation of the fat or compounds. The daily food intake (FIG. 1) and the weekly body weight for each animal were determined throughout the study (FIG. 2A-C).

[4] = for plasma insulin level: end of feeding, controls 0.47 and 0.41 ng/mL
Method: Collection of serum, liver and adipose tissue. The feeding was terminated after 12 weeks. The animals were then anesthetized by using isoflurane, sacrificed and blood was collected by cardiac puncture in heparinized tubes. The plasma was separated by centrifugation at 1600×g for 10 min at 4° C., frozen immediately and stored at −20° C. until use. […] All tissues were then transferred from liquid nitrogen and stored at −80° C. until analyses.
Radio Immuno Assay (RIA). The plasma insulin levels were measured by rat insulin RIA kit purchased from LINCO Research Inc. (St. Charles, Mo.). The insulin standards (100 aliquots) were pipetted to 12×75 mm test tubes. A total of 10 concentrations of insulin, ranging from 0.1-10 ng/mL, were used to determine the standard curve. The plasma samples (aliquots of 1-25 μl) were added to test tubes and the assay buffer was added to attain a total sample volume of 100 μl. The ^125I labeled insulin and anti rat insulin antibody (100 μL each) were added to the tubes, mixed and incubated at 4° C. After 24 h, the precipitating reagent (1 mL) was added and incubated again at 4° C. for 20 min to precipitate the insulin bound to the antibody. The tubes were then centrifuged for 20 min at 3000 g, decanted and the radioactivity was measured using a gamma counter.

[5] = tested on: INS-1 832/13 cells; experiment: Insulin secretion by INS-1 832/13 pancreatic beta cells (RIA, normalized to cellular protein); format: cell-based, rodent; details: for increase in insulin secretion: increase over untreated cells; for fold increase in insulin secretion: vs untreated cells
Method: Insulin Secretion Studies. INS-1 832/13 cells (kindly provided by Dr Christopher Newgard, Duke University, N.C.) were routinely cultured in 5% CO2/air at 37° C. in RPMI-1640 medium containing 11.1 mM glucose and supplemented with 10% FBS (Fetal Bovine Serum), 10 mM HEPES, 100 U/ml penicillin, […] streptomycin, 4 mM Glutamine, 1 mM sodium pyruvate, and 50 μM 2-mercaptoethanol. Cells were passed weekly after trypsin-EDTA detachment. For static secretion studies, cells were plated on 24 well plates at a density of 0.64×10^6 cells per well and grown for 24 h. The cells were then cultured for an additional 24 h in RPMI-1640 containing 4 mM glucose and the supplements described above. Cells were then incubated twice for 30 min in Krebs Ringer Bicarbonate buffer (KRBB) containing 4 mM glucose and 0.1% BSA. Cells were rapidly washed with KRBB and incubated for 60 min KRBB containing 4 or 10 mM glucose with or without the indicated anthocyanins or anthocyanidins. The medium was then removed for determining insulin release. The cells were then washed twice with PBS and dissolved in 1 M NaOH. Cellular protein concentration was then determined by Lowry assay. Anthocyanins and anthocyanidins were dissolved in DMSO to obtain desired concentrations. Final concentration of DMSO was 0.1%. The insulin secreted into the medium by the cells was determined by radioimmuno assay and normalized to total cellular protein.
Radio Immuno Assay (RIA). The Kit for RIA was purchased from LINCO Research Inc. (St Charles, Mo.), and the assay was conducted according to the manufacturer's directions. Briefly, 0.1-10 ng of insulin standards (100 μl) were added to 12×75 mm test tubes. Similarly, samples (25 μl) from the insulin secretion studies were also added to the test tubes. To this, an aliquot (75 μl) of assay buffer was added. The ^125I labeled insulin (100 μl) was then added to each test tube. […] The tubes were then centrifuged and the radioactivity was measured using a gamma counter.
Lowry protein Assay. The amount of protein in the assay wells was determined by Lowry method. The Lowry assay solution was prepared by combining the Lowry solution, CuSO4.5H2O (1%), and sodium tartarate (1%). Briefly, the protein sample (100 μl) and Lowry mixture (1 mL) were mixed in a test tube (12×75). The Folin-Ciolatues reagent (100 μl) was added to these tubes, mixed, and incubated for 30 min at room temperature. The optical density of resulting solutions was read at 700 nm using a UV spectrophotometer.

[6] = 4 and 10 mM glucose, or glucose level not specified

Molecule: C=C(C)[C@@H]1CC[C@]2(C(=O)O)CC[C@]3(C)[C@H](CC[C@@H]4[C@@]5(C)CC[C@H](O)C(C)(C)[C@@H]5CC[C@]43C)[C@@H]12 [betulinic acid]
blood glucose level after 90 min of glucose load [1]: 317.8 ± 21.9 mg/dL
blood glucose level at zero time ([1]; before glucose load, high fat control 119.8): 123.4 ± 6.0 mg/dL
plasma cholesterol level [2]: 126.5 ± 14.01 mg/dL
weight gain during the treatment period [3]: 7.73 ± 0.44 g
weight gain during the treatment period ([3]; listed as 2 (group 4)): 7.73 g
overall weight gain during the experimental period [3]: 15.16 g
weight loss [3]: 21%
body weight [3]: 33.54 g
plasma insulin level [4]: 460 ± 93.68 ng/mL and 460.86 ± 193.68 ng/mL

Molecule: OC[C@H]1O[C@@H](Oc2cc3c(O)cc(O)cc3[o+]c2-c2ccc(O)c(O)c2)[C@H](O)[C@@H](O)[C@H]1O [cyanidin-3-galactoside]
effect on insulin secretion (in words) ([5]; 4 mM glucose): did not increase the insulin secretion
increase in insulin secretion ([5]; 10 mM glucose, 50 μg/mL): 17 ng/mg of protein
fold increase in insulin secretion ([5]; 10 mM glucose, 50 μg/mL): 1.2 fold
effect on insulin secretion (in words) [5, 6]: significant increase in insulin secretion

Molecule: OC[C@H]1O[C@@H](Oc2cc3c(O)cc(O)cc3[o+]c2-c2ccc(O)c(O)c2)[C@H](O)[C@@H](O)[C@@H]1O [cyanidin-3-glucoside]
effect on insulin secretion (in words) ([5]; 4 mM glucose): less active than delphinidin-3-glucoside
insulin secreted ([5]; 4 mM glucose, 5 μg/mL, untreated cells 33): 46 ng of insulin per mg protein
increase in insulin secretion ([5]; 4 mM glucose, 50 μg/mL): 9 ng/mg of protein
fold increase in insulin secretion ([5]; 4 mM glucose, 50 μg/mL): 1.3 fold
dose dependent insulin secretion (in words) ([5]; 4 mM glucose, 10, 50, 100 and 250 μg/mL): no significant difference in insulin secretion
effect on insulin secretion (in words) ([5]; 10 mM glucose): more active
insulin secreted ([5]; 10 mM glucose, 50 μg/mL): 119 ng/mg protein
fold increase in insulin secretion ([5]; 10 mM glucose, 50 μg/mL): 1.43 fold
effect on insulin secretion (in words) [5, 6]: most effective insulin secretagogues

Molecule: Oc1cc(O)c2cc(O)c(-c3ccc(O)c(O)c3)[o+]c2c1 [cyanidin]
insulin secreted ([5]; 4 mM glucose, 50 μg/mL): 29 ng/mg of protein
fold increase in insulin secretion ([5]; 4 mM glucose, 50 μg/mL): 1.5 fold
insulin secreted ([5]; 10 mM glucose, 50 μg/mL): 88 ng/mg protein

Molecule: OC[C@H]1O[C@@H](Oc2cc3c(O)cc(O)cc3[o+]c2-c2cc(O)c(O)c(O)c2)[C@H](O)[C@@H](O)[C@@H]1O [delphinidin-3-glucoside]
insulin secreted ([5]; 4 mM glucose, 50 μg/mL): 49 ng/mg of protein
fold increase in insulin secretion ([5]; 4 mM glucose, 50 μg/mL): 1.8 fold
insulin secreted ([5]; 10 mM glucose, 50 μg/mL): 113 ng/mg protein
fold increase in insulin secretion ([5]; 10 mM glucose, 50 μg/mL): 1.4 fold
effect on insulin secretion (in words) [5, 6]: most effective insulin secretagogues; also recorded: significantly induced the insulin secretion
effect on insulin secretion (in words) ([5]; 4 and 10 mM glucose, or glucose level not specified, listed as Delphinidin-3-glucoside): most active anthocyanin tested

Molecule: Oc1cc(O)c2cc(O)c(-c3cc(O)c(O)c(O)c3)[o+]c2c1 [delphinidin]
increase in insulin secretion ([5]; 4 mM glucose, 50 μg/mL): 6 ng/mg of protein

Molecule: OCC1OC(Oc2cc3c(O)cc(O)cc3[o+]c2-c2ccc(O)cc2)C(O)C(O)C1O (stereo not shown) [pelargonidin-3-galactoside]
effect on insulin secretion (in words) ([5]; 4 mM glucose): did not increase the insulin secretion
effect on insulin secretion (in words) [5, 6]: did not induce insulin secretion

Molecule: Oc1ccc(-c2[o+]c3cc(O)cc(O)c3cc2O)cc1 [pelargonidin]
insulin secreted ([5]; 4 mM glucose, 50 μg/mL): 49 ng/mg of protein
fold increase in insulin secretion ([5]; 4 mM glucose, 50 μg/mL): 1.4 fold
insulin secreted ([5]; 10 mM glucose, 50 μg/mL): 91 ng/mg protein
fold increase in insulin secretion ([5]; 10 mM glucose, 50 μg/mL): 1.2 fold

Molecule: COc1cc(-c2[o+]c3cc(O)cc(O)c3cc2O)cc(O)c1O [petunidin]
increase in insulin secretion ([5]; 4 mM glucose, 50 μg/mL): 4 ng/mg of protein

Molecule: C[C@H]1[C@H](C)CC[C@]2(C(=O)O)CC[C@]3(C)C(=CC[C@@H]4[C@@]5(C)CC[C@H](O)C(C)(C)[C@@H]5CC[C@]43C)[C@H]12 [ursolic acid]
blood glucose level after 90 min of glucose load [1]: 227 ± 22.982 mg/dL
time at which blood glucose concentration reached the maximum ([1]; after glucose injection): 60 min
glucose tolerance / insulin resistance (in words) ([1]; high fat diet fed mice): corrected glucose levels similar to control group animals fed on normal diet; also recorded: overcame the insulin resistance; also recorded: glucose absorption was slow
weight gain during the treatment period ([3]; listed as 3 (group 5)): 8.78 g
overall weight gain during the experimental period [3]: 17.45 g
effect on body weight (in words) ([3]; compared to high fat diet control): did not decrease bodyweight of the treated animals significantly
weight loss [3]: not significant
body weight [3]: 34.89 g
plasma insulin level [4]: 52.25 ± 8.84 ng/mL and 52.25 ± 18.84 ng/mL

hypoglycemia ([4]; mouse, in vivo): without causing hypoglycemia
Molecule: anthocyanins

From patent US20120283203A1, “METHODS AND COMPOSITIONS FOR THE TREATMENT OF OBESITY, INSULIN RELATED DISEASES AND HYPERCHOLESTEROLEMIA” (Board of Trustees of Michigan State University, priority 2005, published 2012)
